These results are taken from ChEMBL document CHEMBL5331085 (Eur J Med Chem, 2023).

Series [1] concerns Staphylococcus aureus. The experiment in a line: Antimicrobial activity against methicillin-resistant Staphylococcus aureus incubated for 16 to 20 hrs by broth microdilution method. In kind it is functional. Particulars: time 16-20 hrs.
A short description of series [2]: Hemolytic activity in sheep erythrocytes incubated for 1 hr by absorbance based analysis. In kind it is toxicity, cell-based, Ovis aries, Erythrocyte. Particulars: sheep erythrocytes.
Series [3] has as its system Staphylococcus aureus. The experiment in a line: Bactericidal activity against Staphylococcus aureus ATCC 29213 assessed as fold increase in MIC incubated for 16 to 20 hrs in presence of 50% plasma by broth dilution method relative to control. The series is classed as functional. Particulars: time 16-20 hrs.
Series [4] relates to Staphylococcus aureus. The series is described as follows: Induction of ROS accumulation in Staphylococcus aureus ATCC 29213 at 0.25 to 0.5 ug/ml incubated for 30 mins by DCF-DA staining based fluorescence analysis. In kind it is functional, organism-based. Particulars: dose 0.25-0.5 µg/ml.
In series [5] the test system is Staphylococcus aureus. The experiment in a line: Induction of ROS accumulation in Staphylococcus aureus ATCC 29213 at 1 ug/ml incubated for 30 mins by DCF-DA staining based fluorescence analysis. The series is classed as functional, organism-based. Particulars: dose 1.0 µg/ml.
A further series relates to Enterococcus faecium. The experiment in a line: Antimicrobial activity against Enterococcus faecium ATCC 29212 incubated for 16 to 20 hrs by CLSI based broth dilution method. In kind it is functional. Particulars: Enterococcus faecium, ATCC 29212, time 16-20 hrs; read-out: MIC.
Series [6] concerns Staphylococcus aureus. The experiment in a line: Induction of ROS accumulation in Staphylococcus aureus ATCC 29213 at 1 ug/ml incubated for 30 mins in presence of N-acetyl-L-cysteine by DCF-DA staining based fluorescence analysis. The series is classed as functional, organism-based. Particulars: dose 1.0 µg/ml.
Series [7] has as its system Staphylococcus aureus. The series is described as follows: Bactericidal activity against Staphylococcus aureus ATCC 29213 assessed as fold increase in MIC incubated for 16 to 20 hrs in presence of 50% serum by broth dilution method relative to control. The series is classed as functional. Particulars: time 16-20 hrs. In general terms: Dilution methods test growth across graded concentrations, often in twofold steps.

A short description of series [8]: Cytotoxicity against HUVEC cells assessed as inhibition of cell growth incubated for 72 hrs by CCK-8 assay. In kind it is toxicity, cell-based. Particulars: human. On the technique in general: Formazan colour is commonly taken as a measure of viable cells.
Series [9] has as its system Cell membrane. The experiment in a line: Induction of membrane depolarization in Staphylococcus aureus ATCC 29213 assessed as increase in fluorescence intensity at 16 ug/ml treated for 6 mins prior to compound addition and further measured for 20 mins by DiSC3-5 dye based fluorescence analysis. Particulars: dose 16.0 µg/ml.
Series [10] concerns Stenotrophomonas maltophilia. The experiment in a line: Antimicrobial activity against Stenotrophomonas maltophilia ATCC 17808 incubated for 16 to 20 hrs by CLSI based broth dilution method. In kind it is functional. Particulars: Stenotrophomonas maltophilia, ATCC 17808; time 16-20 hrs; read-out: MIC.
The subject of series [11] is Cell membrane. The series is described as follows: Induction of membrane damage in Staphylococcus aureus ATCC 29213 assessed as membrane collapse with flowing contents at 8 ug/ml incubated for 6 hrs by scanning electron microscopic analysis. The series is classed as subcellular. Particulars: dose 8.0 µg/ml.
For series [12], the system named is Cell membrane. The series is described as follows: Induction of membrane damage in Staphylococcus aureus ATCC 29213 assessed as change in membrane shape at 8 ug/ml incubated for 6 hrs by scanning electron microscopic analysis. Particulars: dose 8.0 µg/ml.
For series [13], the system named is Cell membrane. The series is described as follows: Induction of membrane depolarization in Staphylococcus aureus ATCC 29213 assessed as increase in fluorescence intensity treated for 6 mins prior to compound addition and further measured for 20 mins by DiSC3-5 dye based fluorescence analysis. In kind it is subcellular. Particulars: dose 16-64 µg/ml.
The test system of series [14] is Cell membrane. The experiment in a line: Induction of membrane damage in Staphylococcus aureus ATCC 29213 assessed as sticky appearance of bacterial cells at 8 ug/ml incubated for 6 hrs by scanning electron microscopic analysis. In kind it is subcellular. Particulars: dose 8.0 µg/ml.
In series [15] the test system is Staphylococcus aureus. The series is described as follows: Bactericidal activity against Staphylococcus aureus ATCC 29213 incubated for 16 to 20 hrs in presence of 50% plasma by broth dilution method. Particulars: time 16-20 hrs. In kind it is functional, organism-based.
Series [16] concerns Staphylococcus aureus. The series is described as follows: Antibacterial activity against Staphylococcus aureus ATCC 29213 assessed as fold increase in MIC incubated for 18 hrs in presence of phosphatidylglycerol incubated for 18 hrs by checkerboard dilution assay relative to control. The series is classed as functional.
For series [17], the system named is Cell membrane. The series is described as follows: Induction of membrane disruption in Staphylococcus aureus ATCC 29213 assessed as nucleic acid leakage at 16 ug/ml incubated for 2 hrs by ultra-fine fluorescence spectrophotometry analysis. Particulars: dose 16.0 µg/ml.
Series [18] concerns Staphylococcus aureus. The experiment in a line: Induction of ROS accumulation in Staphylococcus aureus ATCC 29213 at 0.5 ug/ml incubated for 30 mins by DCF-DA staining based fluorescence analysis. Particulars: dose 0.5 µg/ml. In kind it is functional, organism-based.
Series [19] deals with Staphylococcus aureus. The experiment in a line: Antimicrobial activity against Staphylococcus aureus ATCC 29213 incubated for 16 to 20 hrs by CLSI based broth dilution method. In kind it is functional. Particulars: Staphylococcus aureus, ATCC 29213; time 16-20 hrs; read-out: MIC.
The test system of another series is Escherichia coli. The experiment in a line: Antimicrobial activity against Escherichia coli ATCC 25922 incubated for 16 to 20 hrs by CLSI based broth dilution method. The series is classed as functional. Particulars: Escherichia coli, ATCC 25922; time 16-20 hrs; read-out: MIC.
Series [20] deals with Staphylococcus aureus. The series is described as follows: Antibacterial activity against Staphylococcus aureus ATCC 29213 assessed as inhibition of bacterial growth at 1 ug/ml incubated for 16 to 18 hrs in presence of genomic DNA at 0.125 to 4 ug/ml by microplate reader analysis. In kind it is functional, organism-based. Particulars: dose 1.0 µg/ml, time 16-18 hrs.
Series [21] deals with Staphylococcus aureus. The experiment in a line: Antimicrobial activity against methicillin-resistant Staphylococcus aureus infected in Kunming female mouse assessed as reduction in neutrophil levels in skin at 5 to 10 mg/kg/day administered at labeled position and measured after 24 hrs by H and E staining based analysis. Particulars: dose 5-10 mg/kg/day. In kind it is functional, organism-based.

For series [22], the system named is Staphylococcus aureus. The series is described as follows: Antibacterial activity against Staphylococcus aureus ATCC 29213 assessed as increase in MIC incubated for 18 hrs in presence of cardiolipin incubated for 18 hrs by checkerboard dilution assay. In kind it is functional, organism-based.
The subject of series [23] is Staphylococcus aureus. The experiment in a line: Bactericidal activity against Staphylococcus aureus ATCC 29213 assessed as remaining bacterial concentration at 8 ug/ml measured after 8 hrs. Particulars: dose 8 µg/ml. In kind it is functional.
Series [24] deals with Staphylococcus aureus. The experiment in a line: Antibacterial activity against Staphylococcus aureus ATCC 29213 assessed as fold increase in MIC incubated for 18 hrs in presence of phosphatidylethanolamine at 64 ug/ml incubated for 18 hrs by checkerboard dilution assay relative to control. The series is classed as functional.
In series [25] the test system is Staphylococcus aureus. The series is described as follows: Antimicrobial activity against methicillin-resistant Staphylococcus aureus incubated for 16 to 20 hrs by CLSI based broth dilution method. The series is classed as functional. Particulars: time 16-20 hrs.
Series [26] concerns Cell membrane. The experiment in a line: Induction of membrane disruption in Staphylococcus aureus ATCC 29213 assessed as increase in red fluorescence at 8 ug/ml incubated for 30 mins by DAPI/PI staining based confocal microscopic analysis. The series is classed as subcellular. Particulars: dose 8.0 µg/ml.
A short description of series [27]: Cytotoxicity against human BGC cells assessed as inhibition of cell growth incubated for 72 hrs by CCK-8 assay. The series is classed as toxicity, cell-based.
In series [28] the test system is Staphylococcus aureus. The experiment in a line: Bactericidal activity against Staphylococcus aureus ATCC 29213 assessed as reduction in bacterial growth at 8 ug/ml measured upto 24 hrs. In kind it is functional, organism-based. Particulars: dose 8.0 µg/ml.
In series [29] the test system is Staphylococcus aureus. The series is described as follows: Antimicrobial activity against methicillin-resistant Staphylococcus aureus infected in Kunming female mouse assessed as reduction in bacterial load in skin at 10 mg/kg/day administered at labeled position and measured after 24 hrs relative to control. In kind it is functional. On the set-up: scale not given: the % may be the effect or the level left.

Series [30] deals with Cell membrane. The series is described as follows: Induction of membrane damage in Staphylococcus aureus ATCC 29213 assessed as shrunken bacterial cell surface at 8 ug/ml incubated for 6 hrs by scanning electron microscopic analysis. Particulars: dose 8.0 µg/ml. The series is classed as subcellular.
Series [31] is described as follows: Cytotoxicity against human WPMY-1 cells assessed as inhibition of cell growth incubated for 72 hrs by CCK-8 assay. In kind it is toxicity, cell-based.
Series [32] can be described thus: Induction of drug resistance in Staphylococcus aureus ATCC 29213 assessed as test compound MIC at sub-MIC measured after 20 days (reference value: 1 ug/ml). In kind it is functional. Particulars: ATCC 29213, 480 h, time 20 day.
Series [33] relates to Staphylococcus aureus. The series is described as follows: Antimicrobial activity against methicillin-resistant Staphylococcus aureus infected in Kunming female mouse assessed as reduction in skin inflammation at 5 to 10 mg/kg/day administered at labeled position and measured after 24 hrs by H and E staining based analysis. In kind it is functional, organism-based. Particulars: dose 5-10 mg/kg/day.

In series [34] the test system is Staphylococcus aureus. The experiment in a line: Antimicrobial activity against methicillin-resistant Staphylococcus aureus infected in Kunming female mouse assessed as reduction in bacterial load in skin at 5 mg/kg/day administered at labeled position and measured after 24 hrs relative to control. In kind it is functional. On the set-up: scale not given: the % may be the effect or the level left.

Values after ≈ are worked out from the molar mass of the structure shown. Active and inactive are the calls of the source. The rule behind the calls is not given here.

The MIC is the lowest concentration found to suppress growth. For orientation: HC50 means the concentration giving 50% haemolysis. In the series on Staphylococcus aureus [1], `CCCCCCCC[N+](C)(C)CCCCCOc1ccc(OCCCCC[N+](C)(C)CCCCCCCC)cc1.[Br-].[Br-]` displayed an MIC of 0.25 µg/mL. Further, in series [2], the HC50 at 1 h was determined as 1210 µg/mL.

Broadly, the IC50 is the concentration that gives 50% inhibition. Turning to `CC[C@H](C)[C@H](NC(=O)CN)C(=O)NCC(=O)N[C@@H](C)C(=O)N[C@H](C(=O)N[C@@H](CC(C)C)C(=O)N[C@@H](CCCCN)C(=O)N[C@H](C(=O)N[C@@H](CC(C)C)C(=O)N[C@H](C(=O)N[C@H](C(=O)NCC(=O)N[C@@H](CC(C)C)C(=O)N1CCC[C@H]1C(=O)N[C@@H](C)C(=O)N[C@@H](CC(C)C)C(=O)N[C@H](C(=O)N[C@@H](CO)C(=O)N[C@@H](Cc1c[nH]c2ccccc12)C(=O)N[C@H](C(=O)N[C@@H](CCCCN)C(=O)N[C@@H](CCCNC(=N)N)C(=O)N[C@@H](CCCCN)C(=O)N[C@@H](CCCNC(=N)N)C(=O)N[C@@H](CCC(N)=O)C(=O)N[C@@H](CCC(N)=O)C(N)=O)[C@@H](C)CC)[C@@H](C)CC)[C@@H](C)O)[C@@H](C)O)C(C)C)C(C)C` [MELITTIN], the “fold change (FC)” value in the series with Staphylococcus aureus [3] and with Staphylococcus aureus [7] was more than 32 throughout. Further, the outcome with Staphylococcus aureus [4] and with Staphylococcus aureus [6] was inactive. For the same compound, the result in the series with Staphylococcus aureus [5] and with Cell membrane [9] was Active. Also, the minimum inhibitory concentration (MIC) is 2 µg/mL (≈ 0.703 µM) in the series with Enterococcus faecium and 8 µg/mL (≈ 2.81 µM) in series [10]. Moreover, the IC50 at 72 h in [8] is 5.8 µg/mL (≈ 2.04 µM).

In general, MIC90 refers to an inhibitory concentration at the 90% level, which refers to growth in some studies and to a panel of isolates in others. For `CCCCCC[N+](C)(C)CCCOc1cccc(-c2cccc(OCCC[N+](C)(C)CCCCCC)c2)c1.[Br-].[Br-]`, the outcome in the series with Cell membrane [11], with Cell membrane [12], in the series with Cell membrane [14], with Staphylococcus aureus [15], in the series with Cell membrane [17] and in the series on Staphylococcus aureus [18] was Active. In addition, the result with Staphylococcus aureus [20], with Staphylococcus aureus [21], in the series with Staphylococcus aureus [22], in the series on Cell membrane [26], with Staphylococcus aureus [28] and in the series on Cell membrane [30] was Active. The result in the series with Staphylococcus aureus [33] was Active. The Activity result with Cell membrane [13] is “Dose-Dependent Effect”; in the series with Staphylococcus aureus [23], <1 10^2CFU/ml; with Staphylococcus aureus [29] it was 99.93%; in the series on Staphylococcus aureus [34] it was 99.67%. In addition, the “fold change (FC)” value is recorded as 16 with Staphylococcus aureus [16] and 2 with Staphylococcus aureus [24]. Moreover, the MIC stood at 1 µg/mL in the series with Staphylococcus aureus [19]; 16 µg/mL in the series with Escherichia coli; 8 µg/mL with Enterococcus faecium; 1 µg/mL in series [32]; 16 µg/mL in series [10]. Also, the outcome in the series on Staphylococcus aureus [5] and in the series on Staphylococcus aureus [6] was inactive. In series [2], this compound returned an HC50 at 1 h of 905 µg/mL. The compound also had an MIC90 in the series on Staphylococcus aureus [25] of 1 µg/mL. Besides, the IC50 at 72 h in series [27] worked out at 18.8 µg/mL; in series [8], 24.6 µg/mL; in series [31], 23.3 µg/mL.
